Like-named read-outs stand apart in the source and are kept apart here.
Tests used:
A549 = experiment: SRB cytotoxicity assay, A549; format: cell-based; conditions: Homo sapiens, read-out: IC50 Cytotoxicity A549
Description: (§1) The cell lines MDA-MB-231 (No. TCHu227), A549 (No. TCHu150), and HepG2 (No. TCHu72) were obtained from the Cell Bank/Stem Cell Bank, Chinese Academy of Sciences (Shanghai, China). The cell lines DLD-1 (No. CC0507) and HCT116 (No. CC0506) were obtained from the Cell Bank of Cellcook Biotech Co., Ltd. (Guangzhou, China). Cell line HL-7702 (No. BNCC338358) was obtained from Bena Culture Collection (Zhengzhou, China).
(§2) The human cancer cell lines MDA-MB-231 (breast adenocarcinoma), DLD-1 (colorectal adenocarcinoma), A549 (lung epithelial carcinoma), HCT116 (colorectal adenocarcinoma), HepG2 (hepatocellular carcinoma), and human hepatocyte HL-7702 were cultured in Dulbecco’s modified eagle medium (DMEM, Biological Industries, Beit Haemek, Israel) containing 10% (v/v) fetal bovine serum (FBS, Biological Industries, Beit Haemek, Israel) at 37 °C in a humidified incubator (ThermoFisher, Carlsbad, CA, USA) with a 5% CO2 atmosphere.

HCT116 = experiment: SRB cytotoxicity assay, HCT116; format: cell-based; conditions: Homo sapiens, read-out: IC50 Cytotoxicity HCT116
Description: as §1, §2

MDA-MB-231 = experiment: SRB cytotoxicity assay, MDA-MB-231; format: cell-based; conditions: Homo sapiens, read-out: IC50 Cytotoxicity MDA-MB-231
Description: as §1, §2

HepG2 = experiment: SRB cytotoxicity assay, HepG2; format: cell-based; conditions: Homo sapiens, read-out: IC50 Cytotoxicity HepG2
Description: as §1, §2

DLD-1 = experiment: SRB cytotoxicity assay, DLD-1; format: cell-based; conditions: Homo sapiens, read-out: IC50 Cytotoxicity DLD-1
Description: as §1, §2

[1] = SRB cytotoxicity assay, hepatocyte HL-7702; format: cell-based, human; conditions: SRB assay, 48 h, human hepatocyte, mean ± SD, read-out: IC50 Cytotoxicity HL-7702
Description: as §1, §2

DNA Topo I = target: T1, DNA Topo I (Homo sapiens, UniProt P11387); experiment: Topo I inhibition assay (DNA relaxation assay); format: biochemical; conditions: for IC50: DNA relaxation assay, pBR322, mean ± SD; for inhibition at 400 µM: read-out: percentage inhibition on Topo I activity
T1 construct: purchased ThermoFisher, Waltham, MA, USA
T1 sequence (P11387 1-765): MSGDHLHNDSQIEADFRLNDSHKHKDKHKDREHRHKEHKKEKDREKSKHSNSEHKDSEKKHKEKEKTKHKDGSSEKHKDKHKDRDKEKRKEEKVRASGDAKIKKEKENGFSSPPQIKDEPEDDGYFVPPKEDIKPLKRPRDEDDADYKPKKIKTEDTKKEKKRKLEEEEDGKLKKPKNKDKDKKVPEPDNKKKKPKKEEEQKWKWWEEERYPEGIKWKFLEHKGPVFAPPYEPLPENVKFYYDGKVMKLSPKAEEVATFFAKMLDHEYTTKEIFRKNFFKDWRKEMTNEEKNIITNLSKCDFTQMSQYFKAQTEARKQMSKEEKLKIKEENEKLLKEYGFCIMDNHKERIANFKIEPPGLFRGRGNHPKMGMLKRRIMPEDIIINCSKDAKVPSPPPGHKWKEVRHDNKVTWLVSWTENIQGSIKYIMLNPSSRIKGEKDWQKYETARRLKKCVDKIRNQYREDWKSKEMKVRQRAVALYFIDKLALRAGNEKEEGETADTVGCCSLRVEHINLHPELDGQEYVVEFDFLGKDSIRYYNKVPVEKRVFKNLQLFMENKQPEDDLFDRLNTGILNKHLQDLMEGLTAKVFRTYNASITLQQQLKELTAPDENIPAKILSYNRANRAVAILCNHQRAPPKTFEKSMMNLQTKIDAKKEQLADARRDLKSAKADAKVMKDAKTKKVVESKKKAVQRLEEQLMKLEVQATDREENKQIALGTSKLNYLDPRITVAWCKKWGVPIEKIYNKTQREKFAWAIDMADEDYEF
Protocol: The DNA relaxation assay was adopted to investigate the compounds’ inhibitory activities on Topo I. Different concentrations of the compounds, dissolved and diluted in DMSO, were added into the relaxation buffer (50 mM Tris, pH 7.5, 50 mM KCl, 10 mM MgCl2, 0.1 mM EDTA, 0.5 Mm dithiothreitol, and 0.05 mg/mL bovine serum albumin) containing 0.2 U Topo I (ThermoFisher, Waltham, MA, USA) and incubated at room temperature for 10 min. After that, 500 ng supercoiled pBR322 plasmid DNA (ThermoFisher, Waltham, MA, USA) was added and then incubated at 37 °C for another 30 min. Finally, the reactions were stopped with a stopping solution (5% sodium dodecyl sulfate, 0.0025% bromophenol blue, and 25% glycerol), and the mixtures were applied onto 0.8% agarose gel and subjected to electrophoresis for 1.5 h in Tris-Acetate-EDTA buffer. After being stained with GelRed (Biotium, Fremont, CA, USA), the gel was imagined with the imaging system (Biotop, Shanghai, China). […] The band density of the supercoiled DNA was quantified by the ImageJ software (version 1.53a, National Institutes of Health, Bethesda, MD, USA), and the inhibition activity is expressed as the percentage inhibition and calculated by formula: Inhibition % = [(A − B)/(C − B)] × 100%, where A is the band density of the tested samples, B is the band density of the negative control, and C is the band density of the blank control.

[2] = SRB cytotoxicity assay, panel of five human cancer cell lines and one human hepatocyte cell line; conditions: human
Protocol: (§3) The cytotoxicities of 1–29 were tested by an SRB assay on a panel of five human cancer cell lines and one human hepatocyte cell line.
(§4) The cytotoxic activities of the compounds against cancer cells were examined with a sulforhodamine B (SRB) colorimetric assay. Cells were seeded at a density of 5 × 10^3/well in 96-well plates for 24 h; various concentrations of the tested compounds, dissolved in DMSO and diluted with the complete medium, were added in the wells in triplicate and incubated for 48 h. After that, the cell viability was assessed with the SRB assay as we described before. The IC50 values were determined using the Reed and Muench method and are expressed as the mean ± SD of at least three independent measurements.

DLD-1 cells = experiment: DNA content analysis (cell cycle, flow cytometry) in DLD-1; format: cell-based, human; conditions: 24 h; for percentage of cell population in the G2/M phase / percentage of cells in the G1/S (combined) phase: DLD-1, 2 μM
Protocol: Cells were seeded in 6-well plates and allowed to adhere for 24 h at 37 °C. After treatment with different concentrations of the samples for another 24 h, the cells were harvested and washed with PBS, and then, the DNA content analysis was conducted with a cell cycle staining kit (Multi sciences, Hangzhou, China), according to the manufacturer’s instructions. The fluorescence intensity of the cells was measured by flow cytometry (Beckman CytoFlex, Miami, FL, USA).

[3] = test system: A549, HCT116, MDA-MB-231, HepG2, DLD-1, HL-7702; experiment: SRB cytotoxicity assay, panel of five human cancer cell lines and one human hepatocyte cell line; conditions: tested concentration of 200 μM
Protocol: as §3, §4

[4] = A549, SRB assay, 48 h, mean ± SD
[5] = HCT-116, SRB assay, 48 h, mean ± SD
[6] = MDA-MB-231, SRB assay, 48 h, mean ± SD
[7] = HepG2, SRB assay, 48 h, mean ± SD
[8] = DLD-1, SRB assay, 48 h, mean ± SD

SMILES	IC50 (A549; [4]) [µM]	IC50 (HCT116; [5]) [µM]	IC50 (MDA-MB-231; [6]) [µM]	IC50 (HepG2; [7]) [µM]	IC50 (DLD-1; [8]) [µM]	IC50 at 48 h ([1]; HL-7702 hepatocyte cell line) [µM]	IC50 (DNA Topo I) [µM]	inhibition at 400 µM (DNA Topo I) [%]	IC50 at 48 h [2] [µM]	percentage of cells in the G1/S phase (DLD-1 cells; DLD-1, 0.5 μM) [%]	percentage of cells in the G1/S phase (DLD-1 cells; DLD-1, 1 μM) [%]	percentage of cell population in the G2/M phase (DLD-1 cells) [%]	percentage of cells in the G1/S (combined) phase (DLD-1 cells) [%]	cytotoxicity in all cell lines [3]	IC50 (A549; A549, 48 h) [µM]	IC50 (HCT116; HCT-116, 48 h) [µM]	IC50 (MDA-MB-231; MDA-MB-231, 48 h) [µM]	IC50 (HepG2; HepG2, 48 h) [µM]	IC50 (DLD-1; DLD-1, 48 h) [µM]	IC50 at 48 h [1] [µM]
COc1ccc(/C=C/C(=O)c2ccc(OC)cc2O)cc1 [Compound 3]	136 ± 25	178 ± 6.11	167 ± 5.63	> 200	117 ± 11.6	> 200	> 400	24.6	≥ 50.5	–	–	–	–	–	–	–	–	–	–	–
COc1ccc(-c2oc3c(O)c(OC)c(O)cc3c(=O)c2OC)cc1O [Compound 6]	3.09 ± 0.28	0.59 ± 0.1	> 200	34.6 ± 8.01	1.58 ± 0.07	23.9 ± 5.73	239 ± 31.4	–	–	82.61	88.65	76.49	22.91	–	–	–	–	–	–	–
COc1cc(-c2oc3cc(O)c(OC)c(O)c3c(=O)c2OC)ccc1O [Compound 7]	0.86 ± 0.03	0.43 ± 0.03	81.6 ± 7.43	28.4 ± 13.1	0.85 ± 0.02	11.4 ± 4.42	224 ± 27.2	–	–	81.16	86.07	75.75	24.26	–	–	–	–	–	–	–
O=c1c(O[C@@H]2O[C@H](CO)[C@H](O)[C@H](O)[C@H]2O)c(-c2ccc(O)cc2)oc2cc(O)cc(O)c12 [Compound 11]	> 200	> 200	> 200	> 200	> 200	> 200	> 400	28.6	–	–	–	–	–	no cytotoxicity	–	–	–	–	–	–
COc1ccc(-c2oc3cc(O[C@@H]4O[C@H](CO)[C@@H](O)[C@H](O)[C@H]4O)cc(O)c3c(=O)c2OC)cc1O [Compound 13]	> 200	139 ± 11.3	> 200	> 200	179 ± 5.94	> 200	> 400	38.6	≥ 50.5	–	–	–	–	–	–	–	–	–	–	–
CC#CC#CC#CC=CC1OCCCC1OC(C)=O (stereo not drawn) [Compound 24]	–	–	–	–	–	–	218 ± 50.8	–	–	–	–	–	–	no cytotoxicity	> 200	> 200	> 200	> 200	> 200	> 200
CC#CC#CC#C/C=C/CCC(CCO)O[C@@H]1O[C@H](CO)[C@@H](O)[C@H](O)[C@H]1O (stereo partly drawn) [Compound 25]	–	–	–	–	–	–	> 400	–	–	–	–	–	–	–	174 ± 12.3	162 ± 15.8	> 200	> 200	187 ± 17.4	> 200
CC#CC#CC#C/C=C/CCC(CO)O[C@@H]1O[C@H](CO)[C@@H](O)[C@H](O)[C@H]1O (stereo partly drawn) [Compound 26]	188 ± 15.8	> 200	> 200	> 200	> 200	> 200	> 400	–	–	–	–	–	–	–	–	–	–	–	–	–
CC#CC#CC#CC#CCCC(CO)O[C@@H]1O[C@H](CO)[C@@H](O)[C@H](O)[C@H]1O (stereo partly drawn) [Compound 27]	188 ± 14.9	112 ± 6.59	164 ± 11.7	> 200	144 ± 7.36	> 200	> 400	–	–	–	–	–	–	–	–	–	–	–	–	–
C=C[C@H](O)[C@H](/C=C/C#CC#CC#CC)O[C@@H]1O[C@H](CO)[C@@H](O)[C@H](O)[C@H]1O [Compound 28]	190 ± 12.1	> 200	> 200	> 200	> 200	> 200	> 400	–	–	–	–	–	–	–	–	–	–	–	–	–
C=CCCCCC[C@H](O)[C@@H](O)[C@H](C#CC#CCCC)OC [Compound 29]	–	–	–	–	–	–	> 400	–	–	–	–	–	–	no cytotoxicity	> 200	> 200	> 200	> 200	> 200	> 200
